In ChEMBL document CHEMBL1201862, “PubChem BioAssay data set” (2004):
Calls of active or inactive are those of the source.

How the values were obtained:
cells [1] = assay: cells
Vero = assay: viability loss in Vero cells – cell-based, plate reader, cherry-pick samples, cytotoxicity control, dose response (AID 687020); format: functional; details: Chlorocebus sabaeus
HEK293 = assay: viability loss in HEK293T cells – cell-based, ATP luminescence, cherry-pick samples, cytotoxicity control, dose response (AID 687005); format: functional; details: Homo sapiens;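 further: cells exposed to compound for 48 hours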
[2] = HEK293 Cytotoxicity Assay Measured in Cell-Based System Using Plate Reader - 7071-01_Inhibitor_Dose_CherryPick_Activity_Set2.; format: functional
[3] = target: T1, Methionyl-tRNA synthetase, putative (Trypanosoma brucei brucei, UniProt Q38C91); format: functional, Trypanosoma brucei brucei strain 927/4 GUTat10.1
[4] = Counterscreen for inhibitors of Trypanosoma brucei methionyl tRNA synthetase (MetRS): Luminescence-based cell-based high throughput dose response assay to identify compounds that are cytotoxic to Jurkat human T lymphocyte cells.; format: functional
[5] = target: T1, Methionyl-tRNA synthetase, putative; format: functional, Trypanosoma brucei brucei strain 927/4 GUTat10.1; remark: listed apart in the source
[6] = activation of miR-122 Renilla sensor silencing – cell-based, Huh7 psiCHECK-miR122, Renilla luciferase, cherry-picked, dose response (AID 651956); format: functional;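 further: huh7 hepatoma cells stably carrying a psiCHECK-2 miR-122 sensor plasmid; renilla luciferase signal reporting endogenous miR-122 activity after 48 h compound exposure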
[7] = general mammalian cell viability loss – activator set, cherry-pick, cytotoxicity control for miR-122 modulator project, dose response (AID 720690); format: functional, cell-based;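 further: HEK293T human cells scored for general mammalian cytotoxicity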
Paired box protein Pax-8 = Paired box protein Pax-8 (Homo sapiens, UniProt Q06710); assay: PAX8 transcriptional activity inhibition in RMG-I – RMG-I cells, luciferase, cherry-pick, dose response (AID 687027); format: functional, cell-based;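 further: luciferase reporter driven by Pax8 target thyroperoxidase promoter measured by SteadyGlo luminescence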
[8] = A2780 cell killing – plate reader, dry powder samples, cytotoxicity control, dose response (AID 743046); format: functional, cell-based
[9] = OVCAR-3 cell viability loss – plate reader, dry powder samples, PAX8 inhibitor project, dose response (AID 743044); format: functional, cell-based
[10] = IGROV1 cell killing – plate reader, dry powder samples, PAX8 inhibitor project, dose response (AID 743043); format: functional, cell-based; details: IGROV-1
[11] = OVCAR8 cell viability loss – plate reader, dry powder samples, PAX8 project, dose response (AID 743197); format: functional, cell-based; details: OVCAR-8
Major prion protein = Major prion protein (Homo sapiens, UniProt P04156); format: functional, cell-based
cells [12] = assay: cells; remark: listed apart in the source
Galanin receptor type 3 = Galanin receptor type 3 (Homo sapiens, UniProt O60755); assay: Fluorescence-based cell-based primary high throughput dose response assay to identify antagonists of the Galanin Receptor 3 (GalR3).; format: functional
cells [13] = format: functional, cell-based; details: HEK-CNG
[14] = cytotoxicity in HEK293 background cells – cell-based, dry powder, set 2, counter-screen for EBV LMP1 inhibitor project, dose response (AID 624374); format: functional
[15] = potency of ADAM10 substrate cleavage blockers – biochemical, QFRET, dose response (AID 743254);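 further: ADAM10 enzyme with the DM2 quenched FRET peptide as substrate; EDANS fluorescence gain as the protease cuts the substrate; inhibitor potency against ADAM10 proteolytic activity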
[16] = target: Disintegrin and metalloproteinase domain-containing protein 17 (Homo sapiens, UniProt P78536); assay: inhibition of ADAM17 substrate cleavage – biochemical, quenched FRET substrate, counter-screen for ADAM10 exosite inhibitor project, dose response (AID 743253)
[17] = luciferase reporter signal suppression in cells – H4 neuroglioma cells, luminescence, dose response (AID 1990); format: functional, cell-based
[18] = Luminescence Cell-Based Dose Response HTS to Identify Inhibitors of 5'UTR Stem-Loop Driven Prion Protein mRNA Translation in H4 Neuroglioblastoma Cells. [Related pubchem assays: 1827 (Project Summary), 1813 (Primary HTS)]; format: functional
[19] = alpha-synuclein stem-loop luciferase translation blockers – H4 neuroglioma cells, luminescence, confirmation (AID 1988); format: functional, cell-based
[20] = bead-based luminescence quenchers, dual-tagged ARNT – biochemical, AlphaScreen, cherry-pick, artefact control for ARNT-TACC3 interaction inhibitor project, dose response (AID 651705); format: functional;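 further: AlphaScreen bead proximity signal that flags compounds interfering with the detection technology; potency reflects signal decrease which marks the compound as an assay artifact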
Coagulation factor XII = target: T2, Coagulation factor XII (Homo sapiens, UniProt P00748); format: functional;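 further: activated factor XIIa alpha cleaving a fluorogenic AMC peptide substrate; inhibitor potency from loss of enzyme activity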
T2 sequence (P00748 whole entry): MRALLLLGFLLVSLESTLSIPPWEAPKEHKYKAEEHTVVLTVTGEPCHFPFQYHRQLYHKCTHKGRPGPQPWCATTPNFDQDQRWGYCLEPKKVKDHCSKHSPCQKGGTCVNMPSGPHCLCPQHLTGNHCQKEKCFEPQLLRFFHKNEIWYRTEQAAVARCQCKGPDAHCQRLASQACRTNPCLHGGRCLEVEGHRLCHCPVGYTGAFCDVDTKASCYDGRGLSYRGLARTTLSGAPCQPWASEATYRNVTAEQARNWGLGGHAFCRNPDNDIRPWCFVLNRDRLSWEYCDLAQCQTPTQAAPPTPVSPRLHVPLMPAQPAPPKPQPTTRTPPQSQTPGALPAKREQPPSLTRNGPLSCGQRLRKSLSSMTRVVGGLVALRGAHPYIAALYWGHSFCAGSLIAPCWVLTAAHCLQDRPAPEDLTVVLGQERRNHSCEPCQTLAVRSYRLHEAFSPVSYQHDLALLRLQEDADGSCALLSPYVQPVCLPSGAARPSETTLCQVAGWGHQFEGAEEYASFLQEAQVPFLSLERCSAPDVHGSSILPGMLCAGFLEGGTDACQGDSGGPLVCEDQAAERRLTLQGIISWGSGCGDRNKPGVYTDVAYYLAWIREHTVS

Mu-type opioid receptor = Mu-type opioid receptor (Homo sapiens, UniProt P35372); format: functional, cell-based;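 further: U2OS cells with beta-arrestin recruitment to OPRM1 by beta-gal complementation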
[21] = target: 5-hydroxytryptamine receptor 2A (Mus musculus, UniProt P35363); format: functional, cell-based;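 further: CHO-K1 cells with tagged receptor and beta-arrestin; agonist potency measured as compound-induced activation of the receptor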

With `COCCN1C=C(C(=O)OC)C(c2ccc(Cl)cc2)C(C(=O)OC)=C1` the AC50 (cells [1]) was 10.9 µM (active).
For `COc1ccccc1-c1noc2c1C(=O)N(Cc1cn(Cc3ccccc3)nn1)CC2`, the AC50 (Vero) was 32.2 µM (active).
In the case of `O=C(N[C@@H]1CC[C@@H](CCn2cc(-c3ccccc3)nn2)O[C@H]1CO)c1cnccn1`, the AC50 (HEK293) is reported as 21.8 µM (active) and the AC50 [2] is reported as 21.8 µM (active).
With `Cc1ccccc1-c1c[nH]c(C(O)c2cc(Cl)cc(Cl)c2)n1` (stereo not drawn) the IC50 [3] was 8.47 µM (active), the IC50 [4] was 83.3 µM (inactive) and the IC50 [5] was 5.56 µM (active).
For `CC(=O)/N=c1\scc(-c2ccccc2)n1-c1cccc(O)c1`, the AC50 [6] was 25.1 µM (active) and the AC50 [7] was 44.8 µM (active).
With `COc1ccc(S(=O)(=O)N(C)C[C@H]2Oc3cc(C#CC4CCCC4)ccc3S(=O)(=O)N([C@@H](C)CO)C[C@@H]2C)cc1` the AC50 (Paired box protein Pax-8) was 6.49 µM (active), the AC50 [8] was 8.96 µM (active) and the AC50 [9] was 21.4 µM (active). For the same compound, the AC50 [10] was 57.4 µM (active) and the AC50 [11] was 31.3 µM (active).
With `CCc1ccc(-c2nc3ccc(Br)cc3c(C(=O)O)c2C)s1` the IC50 (Major prion protein) was 1.24 µM (active) and the IC50 (cells [12]) was > 138 µM (inactive).
With `Cc1cc(OCC(=O)Nc2ccncc2)c(C)cc1Br` the IC50 (Galanin receptor type 3) was 1.4 µM (active) and the EC50 (cells [13]) was > 29.9 µM (inactive).
For `O=C(Cc1ccccn1)NCC[C@@H]1CC[C@@H](NC(=O)Nc2ccc(Cl)cc2)[C@@H](CO)O1`, the AbsAC35 [14] was 83.87 µM.
In the case of `Nc1[nH]c(C(=O)c2ccccc2)c(-c2cccc(C(F)(F)F)c2)c1C(=O)NCCc1c[nH]c2ccccc12`, the IC50 [15] is reported as > 7.73 µM (active) and the IC50 [16] is reported as > 69.6 µM (inactive).
In the case of `C(=N\Nc1ccc2nncn2n1)/c1ccccn1`, the EC50 [17] is reported as > 120 µM (not active), the EC50 [18] is reported as 11.8 µM (active) and the EC50 [19] is reported as > 120 µM (not active). The AC50 [20] was 110 µM (active).
For `Cc1[nH]c2ccccc2c1NC(=O)CN1CCN(C(=O)c2ccco2)CC1`, the IC50 (Coagulation factor XII) was > 50 µM (inactive), the EC50 (Mu-type opioid receptor) was 92.4 µM (inactive) and the EC50 [21] was 4.1 µM (active).
